Each compound was assayed on HT29 cells (assay: Inhibition of cell necrosis (CCK8 method), induced programmed necrosis of HT29 cells). Conditions: Homo sapiens, HT-29; rescue from necrosis induced by TNF-α 20 ng/mL, AT-406 1 μM, Z-VAD-FMK 20 μM; 16-20 hours; CCK-8, OD 450 nm.
Format: cell-based
Procedure, shortened: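 Rescue from programmed necrosis was scored by CCK-8 absorbance at 450 nm after 16-20 h of TNF-α (20 ng/mL), AT-406 (1 μM) and Z-VAD-FMK (20 μM) at 37 °C, 5% CO2. HT29 cells had received compound 30 min earlier across nine 4-fold dilutions (top 25000 nM final). IC50 came from % inhibition relative to uninduced and induced-only wells.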

SMILES | IC50 [nM]
CC(C)(C)OCCOc1ccc(Cl)c(-c2ccnc(NC(=O)c3nnc(CC4CCCCC4)[nH]3)c2)c1 [Example 394, N-(4-(5-(2-(tert-butoxy)ethoxy)-2-chlorophenyl)pyridin-2-yl)-5-(cyclohexylmethyl)-4H-1,2,4-triazole-3-carboxamide] | ≤ 100
O=C(Nc1cc(-c2ccccc2)ccn1)c1nnc(Cc2ccccc2)[nH]1 [Example 1, 5-benzyl-N-(4-phenylpyridin-2-yl)-4H-1,2,4-triazole-3-carboxamide] | 1000 to 10000
O=C(Nc1cc(-c2cc(OCCC3CCOCC3)ccc2Cl)c(F)cn1)c1nnc(Cc2ccccc2F)[nH]1 [Example 428, N-(4-(2-chloro-5-(2-(tetrahydro-2H-pyran-4-yl)ethoxy)phenyl)-5-fluoropyridin-2-yl)-5-(2-fluorobenzyl)-4H-1,2,4-triazole-3-carboxamide] | ≤ 100
O=C(Nc1cc(-c2cccc3c2OCCO3)ccn1)c1nnc(Cc2ccccc2)[nH]1 [Example 42, 5-benzyl-N-(4-(2,3-dihydrobenzo[b][1,4]dioxin-5-yl)pyridin-2-yl)-4H-1,2,4-triazole-3-carboxamide] | 1000 to 10000
Cc1ccc(OCCN2CCCCC2)cc1-c1ccnc(NC(=O)c2nnc(Cc3ccccc3F)[nH]2)c1 [Example 229, 5-(2-fluorobenzyl)-N-(4-(2-methyl-5-(2-(piperidin-1-yl)ethoxy)phenyl)pyridin-2-yl)-4H-1,2,4-triazole-3-carboxamide] | 100 to 1000
CC(C)(O)CCCOc1ccc(Cl)c(-c2ccnc(NC(=O)c3nnc(Cc4ccc(F)c(Cl)c4)[nH]3)c2)c1 [Example 342, 5-(3-chloro-4-fluorobenzyl)-N-(4-(2-chloro-5-((4-hydroxy-4-methylpentyl)oxy)phenyl)pyridin-2-yl)-4H-1,2,4-triazole-3-carboxamide] | 100 to 1000
Cc1ccc(OCC#N)cc1-c1ccnc(NC(=O)c2nnc(Cc3ccccc3)[nH]2)c1 [Example 120, 5-benzyl-N-(4-(5-(cyanomethoxy)-2-methylphenyl)pyridin-2-yl)-4H-1,2,4-triazole-3-carboxamide] | 100 to 1000
CC(C)(O)CCCOc1ccc(Cl)c(-c2ccnc(NC(=O)c3nnc(Cc4cccc(C(F)(F)F)c4F)[nH]3)c2)c1 [Example 346, N-(4-(2-chloro-5-((4-hydroxy-4-methylpentyl)oxy)phenyl)pyridin-2-yl)-5-(2-fluoro-3-(trifluoromethyl)benzyl)-4H-1,2,4-triazole-3-carboxamide] | 100 to 1000
CCc1ccc(OC)c(-c2ccnc(NC(=O)c3nnc(Cc4ccccc4)[nH]3)c2)c1 [Example 104, 5-benzyl-N-(4-(5-ethyl-2-methoxyphenyl)pyridin-2-yl)-4H-1,2,4-triazole-3-carboxamide] | 1000 to 10000
Cc1ccc(OCC2CCOCC2)cc1-c1cc(NC(=O)c2nnc(CC3CCCCC3)[nH]2)ncc1Cl [Example 250, N-(5-chloro-4-(2-methyl-5-((tetrahydro-2H-pyran-4-yl)methoxy)phenyl)pyridin-2-yl)-5-(cyclohexylmethyl)-4H-1,2,4-triazole-3-carboxamide] | ≤ 100
Cc1ccc(OCCCC(C)(C)O)cc1-c1ccnc(NC(=O)c2nnc(Cc3cccc(C(F)(F)F)c3F)[nH]2)c1 [Example 210, 5-(2-fluoro-3-trifluoromethylbenzyl)-N-(4-(5-((4-hydroxy-4-methylpentyl)oxy)-2-methylphenyl)pyridin-2-yl)-4H-1,2,4-triazole-3-carboxamide] | 100 to 1000
Cc1ccc(C(=O)NCCC(C)(C)O)cc1-c1ccnc(NC(=O)c2nnc(Cc3ccccc3)[nH]2)c1 [Example 487, 5-benzyl-N-(4-(5-((3-hydroxyl-3-methylbutyl)carbamoyl)-2-methylphenyl)pyridin-2-yl)-4H-1,2,4-triazole-3-carboxamide] | 100 to 1000
COc1ccc(OC(C)C)cc1-c1ccnc(NC(=O)c2nnc(Cc3ccccc3)[nH]2)c1 [Example 112, 5-benzyl-N-(4-(5-isopropoxy-2-methoxyphenyl)pyridin-2-yl)-4H-1,2,4-triazole-3-carboxamide] | 1000 to 10000
Cc1ccc(OCC(C)(C)O)cc1-c1ccnc(NC(=O)c2nnc(Cc3ccccc3)[nH]2)c1 [Example 117, 5-benzyl-N-(4-(5-(2-hydroxyl-2-methylpropoxy)-2-methylphenyl)pyridin-2-yl)-4H-1,2,4-triazole-3-carboxamide] | ≤ 100
C=Cc1ccc(OCCOC(C)(C)C)cc1-c1ccnc(NC(=O)c2nnc(Cc3ccccc3)[nH]2)c1 [Example 78, 5-benzyl-N-(4-(5-(2-(tert-butoxy)ethoxy)-2-vinylphenyl)pyridin-2-yl)-4H-1,2,4-triazole-3-carboxamide] | ≤ 100
Cc1ccc(OCCCC(C)(C)O)cc1-c1ccnc(NC(=O)c2nnc(Cc3cc(C(F)(F)F)ccc3F)[nH]2)c1 [Example 211, 5-(2-fluoro-5-trifluoromethylbenzyl)-N-(4-(5-((4-hydroxy-4-methylpentyl)oxy)-2-methylphenyl)pyridin-2-yl)-4H-1,2,4-triazole-3-carboxamide] | 100 to 1000

SMILES | IC50 [nM]
CC(C)(O)CCCOc1ccc(Cl)c(-c2ccnc(NC(=O)c3nnc(C(O)c4ccccc4F)[nH]3)c2)c1 (stereo not shown) [Example 476, N-(4-(2-chloro-5-((4-hydroxy-4-methylpentyl)oxy)phenyl)pyridin-2-yl)-5-((2-fluorophenyl)(hydroxyl)methyl)-4H-1,2,4-triazole-3-carboxamide] | 100 to 1000
COC(=O)CCc1ccc(C)c(-c2ccnc(NC(=O)c3nnc(CC4CCCC4)[nH]3)c2)c1 [Example 481, Methyl 3-(3-(2-(5-(cyclopentylmethyl)-4H-1,2,4-triazol-3-carboxamido)pyridin-4-yl)-4-methylphenyl)propionate] | 100 to 1000
Cc1c(F)cc(OCCCC(C)(C)O)cc1-c1ccnc(NC(=O)c2nnc(Cc3ccccc3)[nH]2)c1 [Example 235, 5-benzyl-N-(4-(3-fluoro-5-((4-hydroxy-4-methylpentyl)oxy)-2-methylphenyl)pyridin-2-yl)-4H-1,2,4-triazole-3-carboxamide] | ≤ 100
Cc1ccc(OCCCC(C)(C)O)cc1-c1ccnc(NC(=O)c2nnc(Cc3cc(F)cc(F)c3F)[nH]2)c1 [Example 215, 5-(2,3,5-trifluorobenzyl)-N-(4-(5-((4-hydroxy-4-methylpentyl)oxy)-2-methylphenyl)pyridin-2-yl)-4H-1,2,4-triazole-3-carboxamide] | ≤ 100
CCC(O)(CC)CCCOc1ccc(C(F)(F)F)c(-c2ccnc(NC(=O)c3nnc(Cc4ccccc4F)[nH]3)c2)c1 [Example 261, 5-(2-fluorobenzyl)-N-(4-(5-((4-ethyl-4-hydroxyhexyl)oxy)-2-(trifluoromethyl)phenyl)pyridin-2-yl)-4H-1,2,4-triazole-3-carboxamide] | ≤ 100
CC(C)(O)CCCOc1ccc(F)c(-c2cc(NC(=O)c3nnc(CC4CCCCC4)[nH]3)ncc2F)c1 [Example 319, 5-(cyclohexylmethyl)-N-(5-fluoro-4-(2-fluoro-5-((4-hydroxy-4-methylpentyl)oxy)phenyl)pyridin-2-yl)-4H-1,2,4-triazole-3-carboxamide] | ≤ 100
COCCCOc1ccc(C(F)(F)F)c(-c2ccnc(NC(=O)c3nnc(Cc4ccccc4F)[nH]3)c2)c1 [Example 296, 5-(2-fluorobenzyl)-N-(4-(5-(3-methoxypropoxy)-2-(trifluoromethyl)phenyl)pyridin-2-yl)-4H-1,2,4-triazole-3-carboxamide] | ≤ 100
CC(C)(O)CCCOc1cc(F)c(Cl)c(-c2ccnc(NC(=O)c3nnc(Cc4ccccc4)[nH]3)c2)c1 [Example 407, 5-benzyl-N-(4-(2-chloro-3-fluoro-5-((4-hydroxy-4-methylpentyl)oxy)phenyl)pyridin-2-yl)-4H-1,2,4-triazole-3-carboxamide] | > 10000
CC(C)(O)CCCOc1ccc(Cl)c(-c2ccnc(NC(=O)c3nnc(Cc4ccc(F)c(F)c4F)[nH]3)c2)c1 [Example 351, N-(4-(2-chloro-5-((4-hydroxy-4-methylpentyl)oxy)phenyl)pyridin-2-yl)-5-(2,3,4-trifluorobenzyl)-4H-1,2,4-triazole-3-carboxamide] | 100 to 1000
CC(C)(O)CCCCOc1ccc(Cl)c(-c2ccnc(NC(=O)c3nnc(CC4CCCCC4)[nH]3)c2)c1 [Example 370, N-(4-(2-chloro-5-((5-hydroxyl-5-methylhexyl)oxy)phenyl)pyridin-2-yl)-5-(cyclohexylmethyl)-4H-1,2,4-triazole-3-carboxamide] | ≤ 100
Cc1ccc(OCCCCC(C)(C)O)cc1-c1cc(NC(=O)c2nnc(CC3CCCCC3)[nH]2)ncc1Cl [Example 248, 5-(cyclohexylmethyl)-N-(5-chloro-4-(5-((5-hydroxyl-5-methylhexyl)oxy)-2-methylphenyl)pyridin-2-yl)-4H-1,2,4-triazole-3-carboxamide] | 100 to 1000
O=C(Nc1cc(-c2cc(OCC3CCOCC3)ccc2C(F)(F)F)ccn1)c1nnc(Cc2cccc(F)c2)[nH]1 [Example 301, 5-(3-fluorobenzyl)-N-(4-(5-((tetrahydro-2H-pyran-4-yl)methoxy)-2-(trifluoromethyl)phenyl)pyridin-2-yl)-4H-1,2,4-triazole-3-carboxamide] | ≤ 100
COCCCOc1ccc(Cl)c(-c2ccnc(NC(=O)c3nnc(CC4CCCCC4)[nH]3)c2)c1 [Example 398, N-(4-(2-chloro-5-(3-methoxypropoxy)phenyl)pyridin-2-yl)-5-(cyclohexylmethyl)-4H-1,2,4-triazole-3-carboxamide] | ≤ 100
CC(C)(O)CCCCOc1ccc(Cl)c(-c2ccnc(NC(=O)c3nnc(Cc4ccccc4)[nH]3)c2)c1 [Example 367, 5-benzyl-N-(4-(2-chloro-5-((5-hydroxyl-5-methylhexyl)oxy)phenyl)pyridin-2-yl)-4H-1,2,4-triazole-3-carboxamide] | ≤ 100
COCCCOc1ccc(C)c(-c2ccnc(NC(=O)c3nnc(C(C)c4ccccc4)o3)c2)c1 (stereo not shown) [Example 143, N-(4-(5-(3-methoxypropoxy)-2-methylphenyl)pyridin-2-yl)-5-(1-phenylethyl)-1,3,4-oxadiazol-2-carboxamide] | 100 to 1000

Source: patent US12435060B2, “Acylamino bridged heterocyclic compound, and composition and application thereof” (BEIJING SCITECH-MQ PHARMACEUTICALS LIMITED, priority 2019, dated 2025)
